Test results as given in US5608084A, “Lactones with antioxidising and hypolipidaemic activity useful in the therapy of the atherosclerosis” (priority 1994, dated 1997).
Where two headings read alike, the source gives them in different places.

What was measured:
[1] = tested on: LDL; test: Antioxidant activity: latency period of copper-induced LDL oxidation (TBARS method); format: biochemical, human; conditions: for Latency period: LDL oxidized with 5 μM cupric sulfate at 37° C.; for concentration giving a comparable prolongation of the latency period, relative to probucol (times lower): compared with probucol; for antioxidant activity compared with probucol: latency period
Excerpt: The determination of the melting point has been carried out by means of a capillary melting point apparatus Electrothermal, without any correction. The I.R. spectrum has been obtained by means of a Perkin-Elmer rood. 963/G spectrophotometer generally, when not otherwise specified, preparing the specimen in potassium bromide and recording the spectrum between […]. The ^1 H-NMR spectrum has been recorded at room temperature with a 200 MHz Varian Gemini spectrometer, in the solvents cited, by using tetramethylsilane as internal standard; the resonances of the signals have been expressed in p.p.m.. The ^13 C-NMR spectrum has been carried out at 50.3 MHz with a Varian Gemini 200 spectrometer by using tetramethylsilane as internal standard and as solvents those described in the experimental section. The mass spectrum has been recorded by using a VG 7070E mass spectrometer, at a 70 eV ionization voltage and with a 6 Kvolt acceleration voltage. The chromatographies on silica gel have been carried out by using 60 F254 silica gel ([…]--Merck) with the eluents cited in the examples, according to the method described by Clark Still W. et al. in J. Org. Chem., 43, 2923, (1978). The pharmacological activity of the lactones of formula I object of the present invention has been determined by means of a series of in vitro tests considered predictive of the antioxidant and hypolipidaemic properties. The antioxidant activity has been evaluated through the capability of some lactones of formula I to prevent and/or delay the oxidative modification of the lipoproteins (LDL), caused by a chemical method by incubating native LDL with cupric ions, according to the method described by Steinbrecher U. P. in J. Biol. Chem., 262, 3603-3608, (1987). The evaluation of the oxidation degree of the LDL through the monitoring of the concentration of aldehydes derived from the degradation of the lipidic peroxides and the observation of the modifications of the B-100 apolipoprotein represent the used experimental approach. The antioxidant activity of the lactones has been expressed in terms of duration of the latency period that represents a parameter of the resistance to the oxidation of the LDL. The LDL have been isolated from the human plasma obtained from blood collected, in the presence of EDTA, from healty volunteers fasting from 8 hours according to the method described by Havel H. in J. Clin. Invest., 34, 1345-1353, (1955). The solution, dialyzed in Visking-Serva dialysis tubes at 4° C. for 72 hours in phosphate buffer (PBS) added with EDTA (0.24 mM), has been filtered through a membrane with 0.45μ porosity (Millex HV Filters) and the proteic concentration has been determined according to the method described by Lowry O. et al. in J. Biol. Chem., 193, 265-275, (1951). The solution has been diluted with PBS-EDTA at a concentration of 500 μg protein/ml and the obtained LDL have been incubated at 42° C. for 45 minutes in presence of the lactones solubilized in ethanol (1.7 μl/ml LDL). At the end of the incubation the solutions have been placed on ice for 45 minutes and dialyzed at 4° C. for 36 hours in PBS. The oxidation of the LDL has been carried out with 5 μM cupric sulfate at 37° C. and stopped at the experimental times by cooling at 4° C. and adding 0.24 mM of EDTA. The solutions of LDL have been kept at 4° C. and sheltered from light during the experimental procedure. The oxidation degree of the LDL has been checked by spectrophotometric determination (λ=535 nm--Perkin Elmer spectrophotometer mod. Lambda 1) of the content of the aldehydes of degradation reactive to the thiobarbituric acid using as standard malondialdehyde (MDA), according to the TBARS method, described in Methods in Enzymology, vol. 52, (1978).
FIGS. 1A-1C show the results of spectrophotometric readings expressed as ng of MDA/mg LDL protein. […]

[2] = tested on: HepG2; test: Incorporation of 14C-acetate in the lipidic classes in HepG2 cells (hypolipidaemic activity); format: cell-based, human; conditions: for Incorporation of 14C-acetate: Cholesterol / Incorporation of 14C-acetate: Esters of Cholesterol / Incorporation of 14C-acetate: Fatty acids / Incorporation of 14C-acetate: Phospholipids / Incorporation of 14C-acetate: Triglycerides: per culture plate; for inhibition at 1 µM / inhibition at 10 µM: Homo sapiens, HepG2; for activity as regards the synthesis of the esters of the cholesterol: summary of Table 4; for interference with the synthesis of cholesterol: compared with gemfibrozil and probucol; for influence on the synthesis of the fatty acids and of the phospholipids: compared with probucol and gemfibrozil
Method: The hypolipidaemic activity of some lactones of general formula I has been evaluated in vitro by testing their influence on the synthesis of the cell lipids like cholesterol, fatty acids, triglycerides, phospholipids and esters of the cholesterol, described by Barnhard J. W. in Amer. J. Cardiol., 62, 52B-56B, (1988).
The synthesis of the lipids has been studied by incubating cells coming from a human hepatocarcinoma (HepG2-American Type Culture Collection) in presence of ^14 C-acetate (Amersham) and by measuring the incorporation of the radioactive precursor in the main lipidic classes by means of chromatographic separation on silica gel (Merck F254), according to the method described by Skipski V. P. et al. in Biochem. Biophys. Acta, 106, 386-396, (1965) and by means of scintillographic dosage with β-counter Beckman scintillator, according to the method reported by Gherardi E. and Calandra S. in Lipids, 15, 108-112, (1980).
The data reported in tables 4 and 5 refer to the incorporation of ^14 C-acetate in the various lipidic classes, expressed as radioactivity in count per minute (cpm) for culture plate, for some lactones, in comparison with the probucol and the gemfibrozil, used as positive controls and with the solvent ethanol, used as negative control.
The percents in brackets express the lowering of the ^14 C-acetate in the various lipidic classes referred to the control, i.e. to the physiological solution. […] The confluence cells have been exposed to the products tested for 24 hours; at the end of the incubation the monolayer has been solubilized and the optical density of the lysate at λ260 nm has been measured. The value of the absorbance is direct function of the amount of the macromolecules present and therefore indirectly of the number of the cells.

[3] = 1 μM, read-out: Incorporation of 14C-acetate: Cholesterol, percent referred to physiological solution
[4] = 1 μM, read-out: Incorporation of 14C-acetate: Esters of Cholesterol, percent referred to physiological solution
[5] = 1 μM, read-out: Incorporation of 14C-acetate: Fatty acids, percent referred to physiological solution
[6] = 1 μM, read-out: Incorporation of 14C-acetate: Phospholipids, percent referred to physiological solution
[7] = 1 μM, read-out: Incorporation of 14C-acetate: Triglycerides, percent referred to physiological solution
[8] = 10 μM, read-out: Incorporation of 14C-acetate: Cholesterol, percent referred to physiological solution
[9] = 10 μM, read-out: Incorporation of 14C-acetate: Esters of Cholesterol, percent referred to physiological solution
[10] = 10 μM, read-out: Incorporation of 14C-acetate: Fatty acids, percent referred to physiological solution
[11] = 10 μM, read-out: Incorporation of 14C-acetate: Phospholipids, percent referred to physiological solution
[12] = 10 μM, read-out: Incorporation of 14C-acetate: Triglycerides, percent referred to physiological solution

## CC(C)(Sc1cc(C(C)(C)C)c(O)c(C(C)(C)C)c1)Sc1cc(C(C)(C)C)c(O)c(C(C)(C)C)c1 [Probucol, reference compound]
[1]; 10 μM
  Latency period: 82 min
[2]; 1 μM
  Incorporation of 14C-acetate: Cholesterol: 14360 cpm
  Incorporation of 14C-acetate: Esters of Cholesterol: 1887 cpm
  Incorporation of 14C-acetate: Fatty acids: 429 cpm
  Incorporation of 14C-acetate: Phospholipids: 173426 cpm
  Incorporation of 14C-acetate: Triglycerides: 100202 cpm
[2]; 10 μM
  Incorporation of 14C-acetate: Cholesterol: 11389 cpm
  Incorporation of 14C-acetate: Esters of Cholesterol: 2635 cpm
  Incorporation of 14C-acetate: Fatty acids: 394 cpm
  Incorporation of 14C-acetate: Phospholipids: 173329 cpm
  Incorporation of 14C-acetate: Triglycerides: 105097 cpm
[2]; [3]
  inhibition at 1 µM: 55%
[2]; [4]
  inhibition at 1 µM: 54%
[2]; [5]
  inhibition at 1 µM: 36%
[2]; [6]
  inhibition at 1 µM: 31%
[2]; [7]
  inhibition at 1 µM: 8%
[2]; [8]
  inhibition at 10 µM: 64%
[2]; [9]
  inhibition at 10 µM: 35%
[2]; [10]
  inhibition at 10 µM: 42%
[2]; [11]
  inhibition at 10 µM: 31%
[2]; [12]
  inhibition at 10 µM: 3%
[2]
  activity as regards the synthesis of the esters of the cholesterol: 35-45%

## Cc1c(C)c2c(c(C)c1O)CCC(C)OC(=O)C(C)(C)CCCO2 (centres unmarked) [Example 3, 6,6,9,13,15,16-Hexamethyl-14-hydroxy-2,8-dioxabicyclo[10.4.0]hexadec-12,14,16-trien-7-one]
[1]; 1 μM
  Latency period: 73 min
[1]; 5 μM
  Latency period: 120 min
[1]; 10 μM
  Latency period: > 180 min
[1]
  concentration giving a comparable prolongation of the latency period, relative to probucol (times lower): 10 times
  antioxidant activity compared with probucol: far higher than that of probucol
[2]
  influence on the synthesis of the triglycerides: practically absent
  interference with the synthesis of cholesterol: comparable to that of gemfibrozil and lower than that of the probucol
  influence on the synthesis of the fatty acids and of the phospholipids: practically show the same influence
  activity as regards the synthesis of the esters of the cholesterol: 60-75%
[2]; 1 μM
  Incorporation of 14C-acetate: Cholesterol: 23364 cpm
  Incorporation of 14C-acetate: Esters of Cholesterol: 1347 cpm
  Incorporation of 14C-acetate: Fatty acids: 473 cpm
  Incorporation of 14C-acetate: Phospholipids: 181053 cpm
  Incorporation of 14C-acetate: Triglycerides: 109681 cpm
[2]; 10 μM
  Incorporation of 14C-acetate: Cholesterol: 19034 cpm
  Incorporation of 14C-acetate: Esters of Cholesterol: 1107 cpm
  Incorporation of 14C-acetate: Fatty acids: 368 cpm
  Incorporation of 14C-acetate: Phospholipids: 195274 cpm
  Incorporation of 14C-acetate: Triglycerides: 104271 cpm
[2]; [3]
  inhibition at 1 µM: 26%
[2]; [4]
  inhibition at 1 µM: 67%
[2]; [5]
  inhibition at 1 µM: 29%
[2]; [6]
  inhibition at 1 µM: 27%
[2]; [7]
  inhibition at 1 µM: 1%
[2]; [8]
  inhibition at 10 µM: 40%
[2]; [9]
  inhibition at 10 µM: 73%
[2]; [10]
  inhibition at 10 µM: 45%
[2]; [11]
  inhibition at 10 µM: 22%
[2]; [12]
  inhibition at 10 µM: 4%

## CCC1CCc2c(C)c(O)c(C)c(C)c2OCCCC(C)(C)C(=O)O1 (centres unmarked) [Example 6, 9-Ethyl-14-hydroxy-6,6,13,15,16-pentamethyl-2,8-dioxabicyclo[10.4.0]hexadec-12,14,16-trien-7-one]
[1]; 1 μM
  Latency period: 95 min
[1]; 5 μM
  Latency period: > 180 min
[1]; 10 μM
  Latency period: > 180 min
[1]
  concentration giving a comparable prolongation of the latency period, relative to probucol (times lower): 10 times
  antioxidant activity compared with probucol: far higher than that of probucol
[2]
  influence on the synthesis of the triglycerides: practically absent
  interference with the synthesis of cholesterol: comparable to that of gemfibrozil and lower than that of the probucol
  influence on the synthesis of the fatty acids and of the phospholipids: practically show the same influence
  activity as regards the synthesis of the esters of the cholesterol: 60-75%
[2]; 1 μM
  Incorporation of 14C-acetate: Cholesterol: 23597 cpm
  Incorporation of 14C-acetate: Esters of Cholesterol: 1098 cpm
  Incorporation of 14C-acetate: Fatty acids: 386 cpm
  Incorporation of 14C-acetate: Phospholipids: 160997 cpm
  Incorporation of 14C-acetate: Triglycerides: 107497 cpm
[2]; 10 μM
  Incorporation of 14C-acetate: Cholesterol: 17458 cpm
  Incorporation of 14C-acetate: Esters of Cholesterol: 1148 cpm
  Incorporation of 14C-acetate: Fatty acids: 332 cpm
  Incorporation of 14C-acetate: Phospholipids: 177323 cpm
  Incorporation of 14C-acetate: Triglycerides: 110154 cpm
[2]; [3]
  inhibition at 1 µM: 25%
[2]; [4]
  inhibition at 1 µM: 73%
[2]; [5]
  inhibition at 1 µM: 42%
[2]; [6]
  inhibition at 1 µM: 35%
[2]; [7]
  inhibition at 1 µM: 1%
[2]; [8]
  inhibition at 10 µM: 45%
[2]; [9]
  inhibition at 10 µM: 72%
[2]; [10]
  inhibition at 10 µM: 50%
[2]; [11]
  inhibition at 10 µM: 29%
[2]; [12]
  inhibition at 10 µM: -1%
